Data reported in paper PMC12508057, “Discovery of ETI41 and ETI60: novel selective endosomal Toll-like receptor inhibitors for the treatment of autoimmune diseases” (Experimental & Molecular Medicine, 2025).
Read-outs that look alike come from different tables or passages of the source.

Target: T1, TLR7 (Mus musculus, UniProt P58681)
T1 construct: endogenous in cells; host or cells: RAW 264.7
T1 sequence (P58681 27-1050): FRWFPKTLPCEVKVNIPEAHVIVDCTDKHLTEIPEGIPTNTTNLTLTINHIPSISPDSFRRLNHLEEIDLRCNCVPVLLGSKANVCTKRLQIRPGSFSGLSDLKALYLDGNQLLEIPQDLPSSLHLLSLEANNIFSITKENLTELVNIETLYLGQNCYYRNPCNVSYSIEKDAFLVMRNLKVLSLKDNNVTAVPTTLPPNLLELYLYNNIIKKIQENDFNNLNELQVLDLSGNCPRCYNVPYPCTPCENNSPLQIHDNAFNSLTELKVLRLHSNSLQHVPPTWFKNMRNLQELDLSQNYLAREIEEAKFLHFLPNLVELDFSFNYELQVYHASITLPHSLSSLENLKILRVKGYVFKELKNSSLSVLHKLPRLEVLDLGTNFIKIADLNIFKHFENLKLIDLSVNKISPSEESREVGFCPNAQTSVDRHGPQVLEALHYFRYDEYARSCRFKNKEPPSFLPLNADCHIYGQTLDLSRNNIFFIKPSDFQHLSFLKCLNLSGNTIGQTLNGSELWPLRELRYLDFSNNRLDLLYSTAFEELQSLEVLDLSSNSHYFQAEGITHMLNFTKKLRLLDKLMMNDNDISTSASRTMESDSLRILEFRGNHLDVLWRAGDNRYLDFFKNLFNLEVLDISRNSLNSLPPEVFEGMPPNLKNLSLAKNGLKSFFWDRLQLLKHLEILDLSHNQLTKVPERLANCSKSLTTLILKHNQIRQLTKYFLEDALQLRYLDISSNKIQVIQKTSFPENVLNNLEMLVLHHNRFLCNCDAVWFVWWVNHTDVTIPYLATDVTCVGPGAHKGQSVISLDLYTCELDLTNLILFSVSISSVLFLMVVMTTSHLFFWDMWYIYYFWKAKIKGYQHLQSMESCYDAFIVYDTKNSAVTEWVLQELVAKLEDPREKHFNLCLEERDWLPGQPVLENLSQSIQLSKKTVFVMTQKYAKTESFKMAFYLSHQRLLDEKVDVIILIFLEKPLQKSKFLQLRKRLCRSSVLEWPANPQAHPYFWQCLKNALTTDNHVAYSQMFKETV
Experiment: TLR7 inhibition, TNF-α secretion (ELISA) in RAW 264.7
Type: cell-based
Details: for TLR7 TI value: therapeutic index, RAW 264.7
Experimental: RAW 264.7 and differentiated THP-1 cells were seeded into 96-well plates at 2 × 10^4 cells per well, while Daudi cells were seeded at 5 × 10^4 cells per well. After stabilization for 30 min, cells were stimulated with specific TLR agonists for 4 or 24 h. Supernatants were diluted and transferred to precoated ELISA plates to measure TNF-α secretion using kits from Invitrogen. Optical absorbance was measured using a BioTek Synergy HTX multimode microplate reader, and data were interpolated using BioTek Gen5 software.
One-tailed paired Student’s t-tests were performed using Microsoft Excel (Microsoft). Semi-logarithmic conversions and nonregression curve analyses for calculating 50% lethal concentration (LC50) and 50% inhibitory concentration (IC50) values were conducted using GraphPad Prism 7.0 (GraphPad). The therapeutic index was calculated as […]. Animal experimental results are expressed as mean ± standard deviation and analyzed using SPSS v.20 (IBM SPSS Statistics). Homogeneity of variance was assessed using Levene’s test.
The cells were activated with agonistic ligands: […], TLR3 (poly I:C, 2 μg/ml, 24 h), TLR4 (LPS, 10 or 100 ng/ml, 4 h), TLR5 (FLA-ST, 500 ng/ml, 4 h), TLR7 (ORN06/LyoVec, 2 μg/ml, 24 h; and IMQ, 1 μg/ml, 4 h), TLR8 (TL8-506, 2 μg/ml, 24 h) and TLR9 (ODN2395, 1 μM, 4 h) at various concentrations in RAW 264.7 cells, human Daudi cells and THP-1 cells. Data are from at least three independent experiments (n = 3) and statistical differences between the induced case and other cases were analyzed and verified using a one-tailed Student’s t-test (*P < 0.05, **P < 0.01, ***P < 0.001).

Structure (SMILES) | IC50 [µM] | TLR7 TI value | IC50 (RAW 264.7 cell line, read-out: TLR7 IC50 (mTNFα)) [µM]
Cc1cc2c(N)c3c(nc2n1CCCN(C)C)CCCCCC3 [ETI41] | 0.63 | 106.63 | 
COc1ccc2c3c(N)c4c(nc3n(CCCN(C)C)c2c1)CCCC4 [ETI60] |  | 75.65 | 0.68
